From patent publication US20230167073A1 (Teijin Pharma Limited, priority 2020, published 2023)

biological target: T1, Human TRPC6 (Homo sapiens, UniProt Q9Y210); assay: Evaluation of TRPC6 channel inhibitory activity (1), FLIPR Calcium 5 Assay Kit, OAG stimulation (Compound Nos. 1-1293); type: cell-based; conditions: Human TRPC6 stably-expressing cells, OAG 30 μM, FLIPR Calcium 5 Assay Kit; read-out: Inhibitory activity (pIC50 class) (converted)
T1 construct: expressed in transfected cells
T1 sequence (Q9Y210 1-931): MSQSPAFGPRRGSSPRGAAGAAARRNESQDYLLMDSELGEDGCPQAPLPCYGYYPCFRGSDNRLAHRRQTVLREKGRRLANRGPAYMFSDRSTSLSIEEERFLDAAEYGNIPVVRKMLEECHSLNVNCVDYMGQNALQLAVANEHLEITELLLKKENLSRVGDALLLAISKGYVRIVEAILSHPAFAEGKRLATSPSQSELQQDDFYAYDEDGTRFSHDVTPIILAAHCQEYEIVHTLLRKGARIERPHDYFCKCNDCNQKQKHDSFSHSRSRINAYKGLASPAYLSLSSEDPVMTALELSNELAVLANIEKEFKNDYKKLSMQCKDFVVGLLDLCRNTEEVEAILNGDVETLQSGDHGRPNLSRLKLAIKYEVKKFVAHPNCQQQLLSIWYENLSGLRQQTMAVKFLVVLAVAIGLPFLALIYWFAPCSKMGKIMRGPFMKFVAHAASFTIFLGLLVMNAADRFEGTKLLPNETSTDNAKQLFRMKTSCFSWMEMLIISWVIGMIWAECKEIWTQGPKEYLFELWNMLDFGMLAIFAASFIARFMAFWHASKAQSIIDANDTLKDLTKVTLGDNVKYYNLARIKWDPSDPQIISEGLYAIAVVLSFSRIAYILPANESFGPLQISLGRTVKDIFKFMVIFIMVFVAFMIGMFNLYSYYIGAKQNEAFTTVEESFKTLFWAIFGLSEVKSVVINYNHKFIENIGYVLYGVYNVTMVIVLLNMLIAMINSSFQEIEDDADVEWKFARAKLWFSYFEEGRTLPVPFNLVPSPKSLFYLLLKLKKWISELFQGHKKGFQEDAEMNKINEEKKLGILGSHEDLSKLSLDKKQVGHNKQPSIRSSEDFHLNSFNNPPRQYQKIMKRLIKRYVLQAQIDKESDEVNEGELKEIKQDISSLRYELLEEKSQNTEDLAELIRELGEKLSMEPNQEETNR
How it was run: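 Cells stably expressing human TRPC6, plated 24 h before, were loaded 30 min with Calcium 5 dye plus probenecid in HEPES-HBSS. Compound was added 20 min before OAG (30 μM final) and fluorescence tracked on FLIPR. Inhibition normalised to no-compound and no-compound/no-OAG wells; pIC50 from four-parameter fit, reported as +/++/+++ categories.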

| Compound | IC50 [nM] |
| --- | --- |
| Cn1nc(C(C)(C)C)cc1C(=O)c1cc(C#N)ccc1-c1ncc(CCN)cn1 [compound 1031, 4-[5-(2-aminoethyl)pyrimidin-2-yl]-3-(5-tert-butyl-2-methylpyrazole-3-carbonyl)benzonitrile] | < 10 |
| CCN(CC)c1cc(C(=O)c2cc(C#N)ccc2-c2ncc(CCN)cn2)n(C)n1 [compound 1032, 4-[5-(2-aminoethyl)pyrimidin-2-yl]-3-[5-(diethylamino)-2-methylpyrazole-3-carbonyl]benzonitrile] | < 10 |
| Cc1c(C(=O)c2cc(C#N)ccc2-c2ncc(CCN)cn2)cnn1CC1CC1 [compound 1034, 4-[5-(2-aminoethyl)pyrimidin-2-yl]-3-[1-(cyclopropylmethyl)-5-methylpyrazole-4-carbonyl]benzonitrile] | 10 to 1000 |
| N#Cc1ccc(-c2ncc(CCN)cn2)c(C(=O)c2cnn(-c3ccccn3)c2)c1 [compound 1037, 4-[5-(2-aminoethyl)pyrimidin-2-yl]-3-(1-pyridin-2-ylpyrazole-4-carbonyl)benzonitrile] | < 10 |
| N#Cc1ccc(-c2ncc(CN)cn2)c(C(=O)c2cnn(-c3ccccn3)c2)c1 [compound 1038, 4-[5-(aminomethyl)pyrimidin-2-yl]-3-(1-pyridin-2-ylpyrazole-4-carbonyl)benzonitrile] | 10 to 1000 |
| N#Cc1ccc(-c2ncc(CCN)cn2)c(C(=O)c2cnc(C(F)(F)F)s2)c1 [compound 1039, 4-[5-(2-aminoethyl)pyrimidin-2-yl]-3-[2-(trifluoromethyl)-1,3-thiazole-5-carbonyl]benzonitrile] | 10 to 1000 |
| CN(C)c1cc(C(=O)c2cc(C#N)ccc2-c2ncc(CCN)cn2)n(C)n1 [compound 1043, 4-[5-(2-aminoethyl)pyrimidin-2-yl]-3-[5-(dimethylamino)-2-methylpyrazole-3-carbonyl]benzonitrile] | < 10 |
| CC(C)n1cc(C(=O)c2cc(C#N)ccc2-c2ncc(CCN)cn2)cn1 [compound 1044, 4-[5-(2-aminoethyl)pyrimidin-2-yl]-3-(1-propan-2-ylpyrazole-4-carbonyl)benzonitrile] | < 10 |
| N#Cc1ccc(-c2ncc(CCN)cn2)c(C(=O)c2cnn(CC3CC3)c2)c1 [compound 1046, 4-[5-(2-aminoethyl)pyrimidin-2-yl]-3-[1-(cyclopropylmethyl)pyrazole-4-carbonyl]benzonitrile] | < 10 |
| N#Cc1ccc(-c2ncc(CCN)cn2)c(C(=O)c2cnn(-c3nccs3)c2)c1 [compound 1048, 4-[5-(2-aminoethyl)pyrimidin-2-yl]-3-[1-(1,3-thiazol-2-yl)pyrazole-4-carbonyl]benzonitrile] | < 10 |
| N#Cc1ccc(-c2ncc(CN)cn2)c(C(=O)c2cnn(-c3nccs3)c2)c1 [compound 1050, 4-[5-(aminomethyl)pyrimidin-2-yl]-3-[1-(1,3-thiazol-2-yl)pyrazole-4-carbonyl]benzonitrile] | 10 to 1000 |
| N#Cc1ccc(-c2ncc(CCN)cn2)c(C(=O)c2cnn(-c3ncccn3)c2)c1 [compound 1052, 4-[5-(2-aminoethyl)pyrimidin-2-yl]-3-(1-pyrimidin-2-ylpyrazole-4-carbonyl)benzonitrile] | 10 to 1000 |
| N#Cc1ccc(-c2ncc(CCN)cn2)c(C(=O)c2cnn(C3CCC3)c2)c1 [compound 1057, 4-[5-(2-aminoethyl)pyrimidin-2-yl]-3-(1-cyclobutylpyrazole-4-carbonyl)benzonitrile] | < 10 |
| CC(C)Cn1cc(C(=O)c2cc(C#N)ccc2-c2ncc(CCN)cn2)cn1 [compound 1060, 4-[5-(2-aminoethyl)pyrimidin-2-yl]-3-[1-(2-methylpropyl)pyrazole-4-carbonyl]benzonitrile] | < 10 |

Other lines, results leading:

| IC50 [nM] | Compound |
| --- | --- |
| < 10 | CCc1cc(C(=O)c2cc(C#N)ccc2-c2ncc(CN)cn2)n(C)n1 [compound 1026, 4-[5-(aminomethyl)pyrimidin-2-yl]-3-(5-ethyl-2-methylpyrazole-3-carbonyl)benzonitrile] |
| < 10 | Cn1nc(N2CCOCC2)cc1C(=O)c1cc(C#N)ccc1-c1ncc(CCN)cn1 [compound 1027, 4-[5-(2-aminoethyl)pyrimidin-2-yl]-3-(2-methyl-5-morpholin-4-ylpyrazole-3-carbonyl)benzonitrile] |
| < 10 | Cn1nc(N2CCOCC2)cc1C(=O)c1cc(C#N)ccc1-c1ccc(CN)cn1 [compound 1029, 4-[5-(aminomethyl)pyridin-2-yl]-3-(2-methyl-5-morpholin-4-ylpyrazole-3-carbonyl)benzonitrile] |
| < 10 | Cc1nn(CC2CC2)cc1C(=O)c1cc(C#N)ccc1-c1ncc(CCN)cn1 [compound 1033, 4-[5-(2-aminoethyl)pyrimidin-2-yl]-3-[1-(cyclopropylmethyl)-3-methylpyrazole-4-carbonyl]benzonitrile] |
| < 10 | Cc1nn(CC2CC2)cc1C(=O)c1cc(C#N)ccc1-c1ncc(CN)cn1 [compound 1035, 4-[5-(aminomethyl)pyrimidin-2-yl]-3-[1-(cyclopropylmethyl)-3-methylpyrazole-4-carbonyl]benzonitrile] |
| > 1000 | Cc1c(C(=O)c2cc(C#N)ccc2-c2ncc(CN)cn2)cnn1CC1CC1 [compound 1036, 4-[5-(aminomethyl)pyrimidin-2-yl]-3-[1-(cyclopropylmethyl)-5-methylpyrazole-4-carbonyl]benzonitrile] |
| 10 to 1000 | Cc1nc(C(=O)c2cc(C#N)ccc2-c2ncc(CCN)cn2)cc(N2CCOCC2)n1 [compound 1040, 4-[5-(2-aminoethyl)pyrimidin-2-yl]-3-(2-methyl-6-morpholin-4-ylpyrimidine-4-carbonyl)benzonitrile] |
| 10 to 1000 | N#Cc1ccc(-c2ncc(CCN)cn2)c(C(=O)c2cnn(C3CCOCC3)c2)c1 [compound 1041, 4-[5-(2-aminoethyl)pyrimidin-2-yl]-3-[1-(oxan-4-yl)pyrazole-4-carbonyl]benzonitrile] |
| < 10 | CC(C)n1cc(C(=O)c2cc(C#N)ccc2-c2ncc(CN)cn2)cn1 [compound 1045, 4-[5-(aminomethyl)pyrimidin-2-yl]-3-(1-propan-2-ylpyrazole-4-carbonyl)benzonitrile] |
| < 10 | N#Cc1ccc(-c2ncc(CN)cn2)c(C(=O)c2cnn(CC3CC3)c2)c1 [compound 1047, 4-[5-(aminomethyl)pyrimidin-2-yl]-3-[1-(cyclopropylmethyl)pyrazole-4-carbonyl]benzonitrile] |
| < 10 | Cc1cc(C(=O)c2cc(C#N)ccc2-c2ncc(CN)cn2)cc(N2CCOCC2)n1 [compound 1049, 4-[5-(aminomethyl)pyrimidin-2-yl]-3-(2-methyl-6-morpholin-4-ylpyridine-4-carbonyl)benzonitrile] |
| < 10 | CN(C)c1cc(C(=O)c2cc(C#N)ccc2-c2ncc(CN)cn2)n(C)n1 [compound 1051, 4-[5-(aminomethyl)pyrimidin-2-yl]-3-[5-(dimethylamino)-2-methylpyrazole-3-carbonyl]benzonitrile] |
| > 1000 | Cc1nc(C(=O)c2cc(C#N)ccc2-c2ncc(CN)cn2)cc(N2CCOCC2)n1 [compound 1053, 4-[5-(aminomethyl)pyrimidin-2-yl]-3-(2-methyl-6-morpholin-4-ylpyrimidine-4-carbonyl)benzonitrile] |
| < 10 | Cc1nn(C(C)C)cc1C(=O)c1cc(C#N)ccc1-c1ncc(CN)cn1 [compound 1054, 4-[5-(aminomethyl)pyrimidin-2-yl]-3-(3-methyl-1-propan-2-ylpyrazole-4-carbonyl)benzonitrile] |
| > 1000 | N#Cc1ccc(-c2ncc(CN)cn2)c(C(=O)c2cnn(-c3ccncn3)c2)c1 [compound 1055, 4-[5-(aminomethyl)pyrimidin-2-yl]-3-(1-pyrimidin-4-ylpyrazole-4-carbonyl)benzonitrile] |
| 10 to 1000 | N#Cc1ccc(-c2ncc(CN)cn2)c(C(=O)c2cnn(C3CCOCC3)c2)c1 [compound 1056, 4-[5-(aminomethyl)pyrimidin-2-yl]-3-[1-(oxan-4-yl)pyrazole-4-carbonyl]benzonitrile] |
| < 10 | N#Cc1ccc(-c2ncc(CN)cn2)c(C(=O)c2cnn(C3CCC3)c2)c1 [compound 1058, 4-[5-(aminomethyl)pyrimidin-2-yl]-3-(1-cyclobutylpyrazole-4-carbonyl)benzonitrile] |
| < 10 | Cc1nc(N2CCOCC2)sc1C(=O)c1cc(C#N)ccc1-c1ccc(CCN)cc1 [compound 1059, 4-[4-(2-aminoethyl)phenyl]-3-(4-methyl-2-morpholin-4-yl-1,3-thiazole-5-carbonyl)benzonitrile] |
